Molecules are shown by their SMILES.

This experiment deals with T1, human MCH-1 receptor (Homo sapiens, UniProt Q99705).
T1 construct: expressed in transfected cells
As to the kind of experiment: Ca2+ mobilization experiment for the MCH-1 receptor (FLIPR), inhibition of MCH-induced Ca2+ mobilization. Conditions: CHO cells stably expressing human MCH-1 receptor, inhibition of MCH-induced Ca2+ response, read-out: MCH-1 pIC50 (converted). It counts as cell-based. The method, then: The interaction of the compounds of Formula (I) with MCH-1 receptors was assessed in in vitro transient calcium (Ca^2+) mobilization assays in the fluorimetric imaging plate reader (FLIPR) format (Sullivan et al. 1999, Methods Mol Biol 114:125-133). In general, the natural agonist (MCH) is incubated with cells expressing the MCH-1 receptor, which elicits a concentration-dependent transient mobilization of Ca^2+ from internal stores. The interaction of the test compounds with the receptor is assessed in competition experiments. Various concentrations of the test compound are added to the incubation mixture containing the receptor-expressing cells and a submaximal concentration of MCH. The test compound in proportion to its antagonist potency and its concentration inhibits MCH-induced Ca^2+ mobilization.
Chinese Hamster ovary cells (CHO) stably expressing the human MCH-1 receptor are grown in a 1:1 mixture of Dulbecco's Modified Eagles Medium (DMEM) and HAM's F12 medium including Glutamax™ (Invitrogen), supplemented with 10% heat-inactivated fetal bovine serum and 400 μg/ml geneticin.
Twenty-four hours before the experiment, MCH-1 receptor-expressing CHO cells are seeded in 20 μl (5,000 cells per well) into 384-well black wall, clear bottom microtiter plates (Costar). On the day of the experiment, 20 μl per well calcium assay kit containing 10 mM probenicide (Molecular Devices) is added. Cells are loaded for 90 min at 37° C. and 5% CO2 in a cell culture incubator. After loading, 20 μl of serial dilutions of the test compound are added and cells are further incubated for 20 min at room temperature in the dark. After 20 min, 20 μl of a submaximal MCH concentration is added and changes in intracellular calcium are recorded directly in a FLIPR III apparatus (Molecular devices).
Data from assays in the presence of compound were calculated as a percentage of total Ca^2+-responses measured in the absence of test compound. Inhibition curves, plotting percent of total Ca^2+-responses versus the log value of the concentration of the test compound, were automatically generated, and sigmoidal inhibition curves were fitted using non-linear regression. The pIC50 values of test compounds were derived from individual curves.

T1 sequence (Q99705 whole entry): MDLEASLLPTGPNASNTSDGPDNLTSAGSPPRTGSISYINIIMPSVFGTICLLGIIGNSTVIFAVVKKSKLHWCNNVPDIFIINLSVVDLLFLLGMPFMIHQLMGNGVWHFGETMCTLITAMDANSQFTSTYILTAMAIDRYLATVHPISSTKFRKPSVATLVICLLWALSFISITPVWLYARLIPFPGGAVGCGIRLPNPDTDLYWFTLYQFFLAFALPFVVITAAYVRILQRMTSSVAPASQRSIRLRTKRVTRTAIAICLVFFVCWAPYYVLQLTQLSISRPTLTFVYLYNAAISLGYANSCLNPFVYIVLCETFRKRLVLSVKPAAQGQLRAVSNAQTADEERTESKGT

With `O=c1c(NCCc2ccc(F)cc2)nccn1-c1ccc(OCCN2CCCC2)cc1` [2-15], the IC50 was 63.1 nM.
Next, `CN(C(=O)OC(C)(C)C)C1CCN(c2ccc(-n3ccnc(NCCc4ccccc4)c3=O)cc2)C1` (centres unmarked) [3-05]: 158 nM.
Next, `COc1cc(-n2ccnc(SCCc3ccccc3)c2=O)ccc1N1CC[C@H](N(C)C)C1` [6-05]: 12.6 nM; `O=c1c(NCCOc2ccccc2)nccn1-c1ccc(OCCN2CCCC2)c(CO)c1` [1-51]: 126 nM; `CCN(CCOc1ccc(-n2ccnc(NCCOc3ccccc3)c2=O)cc1)Cc1ccncc1` [1-34]: 1000 nM.
`COCCN(C)CCOc1ccc(-n2ccnc(NCCOc3ccccc3)c2=O)cc1` [1-29]: the IC50 was 1580 nM.
Next, `COc1cc(-n2ccnc(NCCc3ccccc3)c2=O)ccc1C=CCN1CCCC1` [3-22]: 31.6 nM.
With `COc1cc(-n2ccnc(NCCc3ccccc3)c2=O)ccc1OC[C@H]1CCCN1` [3-34] the figure was 25.1 nM.
Next, `COc1cc(-n2ccnc(NCCc3ccccc3)c2=O)ccc1NCCN1CCCC1` [3-28]: 126 nM; `COc1cc(-n2ccnc(NCCOc3ccccc3)c2=O)ccc1OCCNC1CC1` [1-59]: 63.1 nM.
On to `COc1cccc(CCNc2nccn(-c3ccc(OCCN4CCCC4)c(OC)c3)c2=O)c1` [2-35], for which the IC50 was 31.6 nM.
In the case of `COc1cc(-n2ccnc(NCCc3ccccc3)c2=O)ccc1NC1CCN(C)C1` (centres unmarked) [3-25], the IC50 is 63.1 nM.
With `COc1cc(-n2ccnc(N3CCC(c4ccccc4OC)C3)c2=O)ccc1OCCN1CCCC1` (centres unmarked) [4-06] the figure was 6310 nM; with `COc1cc(-n2ccnc(NCCc3ccccc3)c2=O)ccc1OCCN1CC[C@H](F)C1` [3-46], 50.1 nM.
With `COc1cc(-n2ccnc(NCCCOc3ccc(Cl)cc3Cl)c2=O)ccc1OCCN1CCCC1` [2-41] the figure was 631 nM; with `CNCCOc1ccc(-n2ccnc(NCCOc3ccccc3)c2=O)cc1` [1-23], 1260 nM; with `COc1cc(-n2ccnc(NCCc3ccccc3)c2=O)ccc1OCCN1[C@H](C)CCC[C@@H]1C` [3-57], 31.6 nM.
Regarding `COc1cc(-n2ccnc(NCCOc3ccc(Cl)cc3Cl)c2=O)ccc1OCCN1CCCC1` [2-40], the IC50 was 200 nM.
Next, `COc1cc(-n2ccnc(NCCc3ccc(Cl)cc3)c2=O)ccc1OCCN1CCCC1` [2-24]: 25.1 nM; `CN(C)CCNc1ccc(-n2ccnc(NCCOc3ccccc3)c2=O)cc1` [1-19]: 100 nM; `CNC1CCN(c2ccc(-n3ccnc(NCCOc4ccccc4)c3=O)cc2)C1` (centres unmarked) [1-01]: 501 nM.
With `COc1cc(-n2ccnc(NCCOc3ccccc3)c2=O)ccc1OCCCN1CCCCC1` [1-77] the figure was 50.1 nM; with `COc1cc(-n2ccnc(NCCOc3ccccc3)c2=O)ccc1OCCN(C)C(=O)C1CCCC1` [1-65], 100 nM; with `COc1cc(-n2ccnc(NCCc3ccccc3)c2=O)ccc1OCCN1CCC(O)C1` (centres unmarked) [3-45], 31.6 nM.
With `CCCN(C)C1CCN(c2ccc(-n3ccnc(NCCc4ccccc4)c3=O)cc2OC)C1` (centres unmarked) [3-15] the figure was 50.1 nM.
Regarding `COc1cc(-n2ccnc(NCCOc3ccccc3)c2=O)ccc1/C=C/CN1CCCC1` [1-17], the IC50 was 31.6 nM.
With `COc1cc(-n2ccnc(N3CCCC(c4ccc(F)cc4)C3)c2=O)ccc1OCCN1CCCC1` (centres unmarked) [4-03] the figure was 2000 nM; with `O=c1c(NCCCOc2ccccc2)nccn1-c1ccc(OCCN2CCCC2)cc1` [2-12], 100 nM.
Next, `COc1cc(-n2ccnc(N(C)CCc3ccccc3)c2=O)ccc1OCCN1CCCC1` [2-05]: 501 nM; `CNC1CCN(c2ccc(-n3ccnc(NCCOc4ccccc4)c3=O)cc2OC)C1` (centres unmarked) [1-09]: 20 nM; `COc1cc(-n2ccnc(NCCCOc3cccc(Cl)c3)c2=O)ccc1OCCN1CCCC1` [2-31]: 25.1 nM.
Next, `COc1cc(-n2ccnc(NCCc3ccccc3)c2=O)ccc1OCCCN1CCCC(CO)C1` (centres unmarked) [3-71]: 39.8 nM; `COCC(=O)N(C)CCOc1ccc(-n2ccnc(NCCOc3ccccc3)c2=O)cc1OC` [1-64]: 100 nM.
Take `COc1cc(-n2ccnc(NCCOc3ccccc3)c2=O)ccc1OCCN(C)C(=O)c1ccccc1` [1-66]: the IC50 is 251 nM.
As to `COc1cc(-n2ccnc(NCCc3ccccc3)c2=O)ccc1OCCN1CCC(C(=O)N2CCCC2)CC1` [3-55], the IC50 was 25.1 nM.
On to `COc1cc(-n2ccnc(NCCOc3ccccc3)c2=O)ccc1OCCNCCO` [1-60], for which the IC50 is 200 nM.
With `COc1cc(-n2ccnc(NCCOc3ccccc3)c2=O)ccc1OCCN(C)C(C)=O` [1-61] the figure was 100 nM; with `COc1ccc(CCNc2nccn(-c3ccc(OCCN4CCCC4)c(OC)c3)c2=O)cc1Cl` [2-42], 251 nM; with `CC(C)N(CCOc1ccc(-n2ccnc(NCCOc3ccccc3)c2=O)cc1)C(C)C` [1-28], 501 nM.
Next, `COc1cc(-n2ccnc(NCCc3ccccc3)c2=O)ccc1OCCN1CCCC(CO)C1` (centres unmarked) [3-49]: 31.6 nM; `CNC1CCN(c2ccc(-n3ccnc(NCCc4ccccc4)c3=O)cc2)C1` (centres unmarked) [3-02]: 50.1 nM; `COc1cc(-n2ccnc(NCCOc3ccccc3)c2=O)ccc1OCCN1CCCC(CO)C1` (centres unmarked) [1-72]: 50.1 nM.
With `O=c1c(NCCc2ccccc2)nccn1-c1ccc(N2CCNCC2)cc1` [3-06], the IC50 is 100 nM.
With `Cc1cc(-n2ccnc(NCCOc3ccccc3)c2=O)ccc1OCCN1CCCC1` [1-48] the figure was 50.1 nM; with `COC(=O)c1cc(-n2ccnc(NCCOc3ccccc3)c2=O)ccc1OCCN1CCCC1` [1-54], 200 nM.
Next, `COc1cc(-n2ccnc(NCCOc3cccc(Cl)c3)c2=O)ccc1OCCN1CCCC1` [2-30]: 50.1 nM.
With `COc1cc(-n2ccnc(NCCc3ccccc3)c2=O)ccc1N1CCC(N)C1` (centres unmarked) [3-08], the IC50 is 39.8 nM.
With `COc1cc(-n2ccnc(NCCc3ccccc3)c2=O)ccc1N1CCC(N2CCC(O)C2)C1` (centres unmarked) [3-20] the figure was 126 nM; with `COc1cc(-n2ccnc(NCCc3ccccc3)c2=O)ccc1OCCNC(=O)CN(C)C` [3-40], 79.4 nM.
With `COc1cc(-n2ccnc(NCCc3ccccc3)c2=O)ccc1OCCCN1CCC(O)C1` (centres unmarked) [3-70] the figure was 50.1 nM; with `COc1ccc(CCNc2nccn(-c3ccc(OCCN4CCCC4)c(OC)c3)c2=O)cc1` [2-36], 50.1 nM; with `COc1cc(-n2ccnc(NCCOc3ccccc3)c2=O)ccc1OCCN1CCC(F)(F)CC1` [1-73], 50.1 nM.
For `COc1cc(-n2ccnc(NCCc3ccccc3)c2=O)ccc1N1CCC(N(C)C(C)=O)C1` (centres unmarked) [3-10], the IC50 is 79.4 nM.
Next, `COc1cc(-n2ccnc(NCCOc3ccccc3)c2=O)ccc1OCCN1CCC(O)C1` (centres unmarked) [1-68]: 126 nM; `COc1cc(-n2ccnc(NCCc3cccc(Cl)c3)c2=O)ccc1OCCN1CCCC1` [2-23]: 50.1 nM.
As for `O=c1c(NCCc2ccccc2)nccn1-c1ccc2nc(N3CCCCC3)ccc2c1` [3-87], the IC50 was 200 nM.
With `CN(CCOc1ccc(-n2ccnc(NCCOc3ccccc3)c2=O)cc1)C1CCCCC1` [1-25] the figure was 631 nM; with `COc1cc(-n2ccnc(NCCc3ccccc3)c2=O)ccc1OCCN(C)CCO` [3-37], 50.1 nM; with `COc1cc(-n2ccnc(NCCc3ccccc3)c2=O)ccc1OCCCN1CCC(C#N)CC1` [3-73], 39.8 nM.
Next, `CN1CCN(CCOc2ccc(-n3ccnc(NCCc4ccccc4)c3=O)cc2Cl)CC1` [3-82]: 50.1 nM; `CCCN1CCC(Oc2ccc(-n3ccnc(SCCc4ccccc4)c3=O)cc2OC)C1` (centres unmarked) [6-17]: 15.8 nM.
With `COc1cc(-n2ccnc(NCCc3ccccc3)c2=O)ccc1OCCN1CC[C@@H](F)C1` [3-47] the figure was 63.1 nM.
Take `COc1ccc(OCCCNc2nccn(-c3ccc(OCCN4CCCC4)c(OC)c3)c2=O)cc1` [2-38]: the IC50 is 2000 nM.
Take `COc1cc(-n2ccnc(NCCOc3ccccc3)c2=O)ccc1OCCN1CCC(F)CC1` [1-69]: the IC50 is 5.01 nM.
With `CC(=O)N(C)C1CCN(c2ccc(-n3ccnc(NCCc4ccccc4)c3=O)cc2)C1` (centres unmarked) [3-03] the figure was 63.1 nM.
With `COc1cc(-n2ccnc(NCCc3ccc(C(F)(F)F)cc3F)c2=O)ccc1OCCN1CCCC1` [2-43] the figure was 794 nM; with `COc1cc(-n2ccnc(SCCc3ccccc3)c2=O)ccc1OC1CCNC1` (centres unmarked) [6-14], 100 nM.
In the case of `CN[C@@H]1CCN(c2ccc(-n3ccnc(SCCc4ccccc4)c3=O)cc2OC)C1` [6-03], the IC50 is 12.6 nM.
Next, `COc1cc(-n2ccnc(CCCOc3ccccc3)c2=O)ccc1OCCN1CCCC1` [2-08]: 158 nM; `COCC(=O)NCCOc1ccc(-n2ccnc(NCCc3ccccc3)c2=O)cc1OC` [3-43]: 200 nM; `COc1cc(-n2ccnc(NCCc3ccccc3)c2=O)ccc1OCCN1CC(C)OC(C)C1` (centres unmarked) [3-63]: 158 nM.

For the origin of these results see patent US8329704B2, “Substituted pyrazinone derivatives for use in MCH-1 mediated diseases” (Janssen Pharmaceutica, N.V., priority 2005, dated 2012).
